The term IC50 denotes the concentration at which inhibition is half-maximal. Low values mean inhibition by little substance, high ones a need for much substance.

Here are results for three molecules from patent US6022868A, “Substituted azacyclic or azabicyclic compounds” (Novo Nordisk Als, priority 1995, dated 2000).

One assay relates to substantia nigra. The note with it: chronic nicotine; cited from earlier work.
Assay [1] relates to dopamine release in the nucleus accumbens. The conditions noted are these: cited from earlier work.
The conditions of assay [2]: in vivo; cited from earlier work.
The subject of assay [3] is dopaminergic effects in various behavioral models. The note with it: cited from earlier work.
Assay [4] concerns the target muscarinic acetylcholine receptors. Briefly: inhibition of specific binding of 3H-Oxotremorine-M (3H-Oxo) to rat cortical receptors. The note with it: 3H-Oxo 1.0 nM, 25° C., 30 min. From the text: Furthermore, the pharmacological properties of the compounds of the invention can also be illustrated by determining their capability to inhibit the specific binding of ^3 H-Oxotremorine--M (^3 H-Oxo). Birdsdall N.J.M., Hulme E.C., and Burgen A.S.V. (1980). "The Character of Muscarinic Receptors in Different Regions of the Rat Brain". Proc. Roy. Soc. London (Series B) 207,1.
^3 H-Oxo labels muscarinic receptor in the CNS (with a preference for agonist domains of the receptors). Three different sites are labelled by ^3 H-Oxo. […] Using the present experimental conditions only the high and medium affinity sites are determined.
The inhibitory effects of compounds on ^3 H--Oxo binding reflects the affinity for muscarinic acetylcholine receptors.
All preparations are performed at 0-4° C. unless otherwise indicated. […]
The final pellet is homogenized in 20 mM Hepes pH: 7.4 (100 ml per g of original tissue) and used for binding assay. […] Non-specific binding is determined in triplicate using arecoline (1 ug/ml, final concentration) as the test substance. […] The amount of radioactivity on the filters are determined by conventional liquid scintillation counting. […]
Table I illustrates the affinity of the compounds of the present invention for nicotinic and muscarinic receptors as determined by ^3 H-MCC and ^3 H-Oxo binding to rat cortical receptors. […]

Assay [5] deals with T1, nicotinic acetylcholine receptors (Rattus norvegicus, UniProt P09483+P12390).
T1 construct: Fresh or frozen rat, brain tissue (hippocampus or cortex) was homogenized in assay buffer; from tissue; host or cells: rat brain tissue (hippocampus or cortex)
T1 sequence (P09483 31-630): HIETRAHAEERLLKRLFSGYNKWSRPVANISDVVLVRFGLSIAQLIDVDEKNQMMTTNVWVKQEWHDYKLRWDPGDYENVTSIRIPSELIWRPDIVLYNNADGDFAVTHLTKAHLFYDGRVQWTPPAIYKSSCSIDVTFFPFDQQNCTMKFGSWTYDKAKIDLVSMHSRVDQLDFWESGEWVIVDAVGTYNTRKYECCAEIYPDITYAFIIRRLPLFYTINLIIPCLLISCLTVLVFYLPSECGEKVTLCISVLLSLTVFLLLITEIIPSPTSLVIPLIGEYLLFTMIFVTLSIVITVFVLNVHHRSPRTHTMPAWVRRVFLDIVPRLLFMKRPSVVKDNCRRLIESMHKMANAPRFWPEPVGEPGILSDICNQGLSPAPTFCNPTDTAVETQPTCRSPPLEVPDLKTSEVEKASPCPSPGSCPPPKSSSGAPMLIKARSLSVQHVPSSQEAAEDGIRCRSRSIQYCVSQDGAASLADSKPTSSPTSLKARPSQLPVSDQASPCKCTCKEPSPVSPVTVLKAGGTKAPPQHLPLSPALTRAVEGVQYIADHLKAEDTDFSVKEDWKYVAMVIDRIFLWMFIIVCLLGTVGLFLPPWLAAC
T1 sequence (P12390 25-500): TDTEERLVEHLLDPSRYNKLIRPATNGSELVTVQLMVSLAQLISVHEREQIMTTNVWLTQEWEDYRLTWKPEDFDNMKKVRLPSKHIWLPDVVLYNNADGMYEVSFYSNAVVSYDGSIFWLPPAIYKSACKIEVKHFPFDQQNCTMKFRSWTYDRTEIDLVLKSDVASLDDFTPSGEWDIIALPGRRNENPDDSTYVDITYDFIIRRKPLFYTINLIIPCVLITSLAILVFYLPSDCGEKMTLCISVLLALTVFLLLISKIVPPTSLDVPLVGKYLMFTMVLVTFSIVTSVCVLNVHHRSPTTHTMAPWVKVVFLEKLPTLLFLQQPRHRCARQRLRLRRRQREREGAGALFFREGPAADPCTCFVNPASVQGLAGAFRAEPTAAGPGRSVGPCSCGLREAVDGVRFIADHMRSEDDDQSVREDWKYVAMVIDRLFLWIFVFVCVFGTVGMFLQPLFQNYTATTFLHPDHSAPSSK
Briefly: inhibition of specific binding of 3H-methylcarbamylcholine (3H-MCC) to rat cortical receptors. The conditions noted are these: for IC50: rat cortical receptors, 3H-MCC 2 nM, 0° C., 60 min; for Oxo/MCC Ratio: selectivity for nicotinic (3H-MCC) over muscarinic (3H-Oxo) receptors, rat cortex. From the text:
The pharmacological properties of the compounds of the invention can be illustrated by determining their capability to inhibit the specific binding of ^3 H-methylcarbamylcholine (^3 H-MCC) (Abood and Grassi, Biochem. Pharmacol., Vol. 35, pp. 4199-4202, (1986)).
^3 H-MCC labels the nicotinic receptors in the CNS. The inhibitory effect on ^3 H-MCC binding reflects the affinity for nicotinic acetylcholine receptors.
Fresh or frozen rat, brain tissue (hippocampus or cortex) was homogenized in assay buffer (5OmM Tris--HCI, pH 7.4, 120 mM NaCI, 5 mM KCI, 2 mM CaCI21 1mM MgCI2) and centrifuged for 10 min. at 40.000×g.Pellets were subsequently reconstituted in assay buffer and an appropriate amount of tissue sample was mixed in tubes with ^3 H--methylcarbamylcholine (NEN, NET--951; final concentration 2 nM) and test drug. The tubes were incubated at 0° C. for 60 min. Unbound ligand was separated from bound ligand by vacuum filtration through GF/B filters presoaked in 0.5 % polyethylenimine. Filters were washed three times with 5 ml wash buffer (50mM Tris--HCI, pH 7.4) and transferred to vials. 4 ml scintillation fluid was added and the radioactivity was measured by scintillation counting. Unspecific binding was measured with 10 μM nicotine.
The IC50 values of the test compounds were determined by nonlinear regression analyses (GraphPad InPlot).
Table I illustrates the affinity of the compounds of the present invention for nicotinic and muscarinic receptors as determined by ^3 H-MCC and ^3 H-Oxo binding to rat cortical receptors. The compounds, however, show selective affinity for nicotinic receptors as compared to muscarinic receptors, i.e OXO/MCC >1.

As for `CN1CCCC1c1cccnc1` (stereo not shown) [nicotine], the “protection against cell loss in the substantia nigra caused by lesioning” value in the assay with substantia nigra is reported as “may protect against cell loss in the substantia nigra caused by lesioning”. Besides, the “stimulation of dopamine release, nucleus accumbens versus striatum” value in assay [1] was “stimulates dopamine release in the nucleus accumbens more potently than in striatum”. Further, in assay [2], the “effect in Tourette's syndrome” value is given as “beneficial effects in Tourette's syndrome”. For the same molecule, in assay [3], the “potentiation of dopaminergic effects” value is on record as “will potentiate dopaminergic effects in various behavioral models”.

`Cc1cc(/C=C2/CCCNC2)on1.Cl` [Compound 5, (Z)-3-(3-Methyl-5-isoxazolyl)methylenepiperidine hydrochloride] yielded an IC50 in assay [4] of 10 µM. Besides, in assay [5], the IC50 was determined as 0.1 µM and the “Oxo/MCC Ratio” value came out at 100.

The molecule `Cc1cc(/C=C2/CCCN(C)C2)on1.O=C(O)C(=O)O` [Compound 1, (Z)-3-(3-Methyl-5-isoxazolyl)methylene-1-methylpiperidine oxalate] had an IC50 in assay [4] of 5.15 µM. Moreover, in assay [5], the IC50 was determined as 3.05 µM and the “Oxo/MCC Ratio” value was found to be 1.7.
